Test results as given in the NIST ThermoML archive (doi:10.1021/je034002l).

Experiment: xn = mol fraction of the nth substance listed
Conditions: 101.3 kPa, Liquid

CCCCCCCl [1-chlorohexane] + CCCCCC
Conditions | mass density [kg/m3] | viscosity [mPa·s]
293.15 K, x1 = 0.1 | 683.01 | 0.3403
293.15 K, x1 = 0.15 | 694.01 | 0.3532
293.15 K, x1 = 0.2 | 706.37 | 0.3669
293.15 K, x1 = 0.3 | 728.21 | 0.3965
293.15 K, x1 = 0.5 | 771.87 | 0.4691
293.15 K, x1 = 0.7 | 815.39 | 0.5662
293.15 K, x1 = 0.9 | 856.91 | 0.6932
293.15 K, x1 = 1 | 878.52 | 0.7704
298.15 K, x1 = 0.1 | 678.51 | 0.3263
298.15 K, x1 = 0.15 | 689.61 | 0.3384
298.15 K, x1 = 0.2 | 701.84 | 0.352
298.15 K, x1 = 0.3 | 723.73 | 0.3794
298.15 K, x1 = 0.5 | 767.36 | 0.4464
298.15 K, x1 = 0.7 | 810.91 | 0.5367
298.15 K, x1 = 0.9 | 852.37 | 0.6495
298.15 K, x1 = 1 | 873.75 | 0.7173
303.15 K, x1 = 0.1 | 673.93 | 0.313
303.15 K, x1 = 0.15 | 685.15 | 0.3245
303.15 K, x1 = 0.2 | 697.27 | 0.3377
303.15 K, x1 = 0.3 | 719.21 | 0.3632
303.15 K, x1 = 0.5 | 762.82 | 0.4254
303.15 K, x1 = 0.7 | 806.39 | 0.5094
303.15 K, x1 = 0.9 | 847.8 | 0.6103
303.15 K, x1 = 1 | 868.98 | 0.6702
308.15 K, x1 = 0.1 | 669.37 | 0.2998
308.15 K, x1 = 0.15 | 680.63 | 0.3107
308.15 K, x1 = 0.2 | 692.67 | 0.3233
308.15 K, x1 = 0.3 | 714.64 | 0.3475
308.15 K, x1 = 0.5 | 758.26 | 0.4061
308.15 K, x1 = 0.7 | 801.83 | 0.4844
308.15 K, x1 = 0.9 | 843.21 | 0.5754
308.15 K, x1 = 1 | 864.21 | 0.6283
313.15 K, x1 = 0.1 | 664.73 | 0.2881
313.15 K, x1 = 0.15 | 676.04 | 0.2985
313.15 K, x1 = 0.2 | 688.03 | 0.3109
313.15 K, x1 = 0.3 | 710.03 | 0.3337
313.15 K, x1 = 0.5 | 753.66 | 0.3884
313.15 K, x1 = 0.7 | 797.24 | 0.4614
313.15 K, x1 = 0.9 | 838.59 | 0.5436
313.15 K, x1 = 1 | 859.44 | 0.591
318.15 K, x1 = 0.1 | 660.04 | 0.2765
318.15 K, x1 = 0.15 | 671.39 | 0.2865
318.15 K, x1 = 0.2 | 683.36 | 0.2984
318.15 K, x1 = 0.3 | 705.37 | 0.3201
318.15 K, x1 = 0.5 | 749.03 | 0.372
318.15 K, x1 = 0.7 | 792.61 | 0.4402
318.15 K, x1 = 0.9 | 833.95 | 0.5152
318.15 K, x1 = 1 | 854.67 | 0.558
323.15 K, x1 = 0.1 | 655.31 | 0.266
323.15 K, x1 = 0.15 | 666.68 | 0.2755
323.15 K, x1 = 0.2 | 678.65 | 0.2868
323.15 K, x1 = 0.3 | 700.66 | 0.3076
323.15 K, x1 = 0.5 | 744.37 | 0.3569
323.15 K, x1 = 0.7 | 787.95 | 0.4208
323.15 K, x1 = 0.9 | 829.29 | 0.4899
323.15 K, x1 = 1 | 849.9 | 0.5285
328.15 K, x1 = 0.1 | 650.53 | 0.256
328.15 K, x1 = 0.15 | 661.91 | 0.2652
328.15 K, x1 = 0.2 | 673.9 | 0.2759
328.15 K, x1 = 0.3 | 695.91 | 0.2959
328.15 K, x1 = 0.5 | 739.68 | 0.3428
328.15 K, x1 = 0.7 | 783.25 | 0.4027
328.15 K, x1 = 0.9 | 824.61 | 0.4666
328.15 K, x1 = 1 | 845.12 | 0.5019
333.15 K, x1 = 0.1 | 645.7 | 0.2468
333.15 K, x1 = 0.15 | 657.07 | 0.2556
333.15 K, x1 = 0.2 | 669.12 | 0.2658
333.15 K, x1 = 0.3 | 691.11 | 0.2849
333.15 K, x1 = 0.5 | 734.96 | 0.3297
333.15 K, x1 = 0.7 | 778.51 | 0.3862
333.15 K, x1 = 0.9 | 819.9 | 0.4455
333.15 K, x1 = 1 | 840.35 | 0.4778
